According to patent publication US6545033B1, “Fused 1-(2,6-dichloro-4-trifluoromethylphenyl)-pyrazoles, the synthesis thereof and the use thereof as pesticides” (3-Dimensional Pharmaceuticals, Inc., priority 1999, dated 2003):

What was measured:
Housefly GABA receptors = target: T1, Housefly GABA receptors (Musca domestica, UniProt Q75NA5); experiment: In vitro assay of binding to housefly GABA receptors (3H-EBOB displacement, housefly neuronal membranes); conditions: for Compounds with the most activity (housefly 3H-EBOB binding): housefly neuronal membranes
T1 sequence (Q75NA5 30-576): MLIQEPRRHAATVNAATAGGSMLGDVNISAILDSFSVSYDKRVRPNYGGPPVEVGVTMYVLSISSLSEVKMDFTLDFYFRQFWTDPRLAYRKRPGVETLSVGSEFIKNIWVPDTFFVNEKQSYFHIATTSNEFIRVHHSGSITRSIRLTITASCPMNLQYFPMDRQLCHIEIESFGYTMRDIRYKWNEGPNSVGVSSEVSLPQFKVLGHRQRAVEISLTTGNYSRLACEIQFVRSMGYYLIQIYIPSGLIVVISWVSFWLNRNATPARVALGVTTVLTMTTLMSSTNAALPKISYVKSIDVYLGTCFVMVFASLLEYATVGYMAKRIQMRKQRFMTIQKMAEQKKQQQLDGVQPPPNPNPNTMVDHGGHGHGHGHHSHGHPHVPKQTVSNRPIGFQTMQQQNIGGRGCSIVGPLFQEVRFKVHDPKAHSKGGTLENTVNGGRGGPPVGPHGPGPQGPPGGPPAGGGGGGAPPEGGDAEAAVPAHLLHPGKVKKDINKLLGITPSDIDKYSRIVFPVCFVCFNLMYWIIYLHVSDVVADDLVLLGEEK
Protocol: Newly emerged houseflies (Musca domestica, available from Rincon-Vitova Insectaries, Inc., Ventura, Calif.) were sedated with carbon dioxide gas, collected in 50 mL polypropylene conical tubes, and immediately frozen by submersion in liquid nitrogen. Unless specified, all of the following work was performed at 0-4° C. After removal from liquid nitrogen, the tubes of frozen houseflies were shaken vigorously by hand to decapitate the houseflies. […] Contaminating wings were removed by holding a vacuum nozzle approximately 4 cm above the heads, and contaminating legs were separated from the heads by passage through a #15 mesh screen. All remaining debris were removed from the pool of heads using forceps. The purified heads were collected in 50 mL polypropylene conical tubes and stored in liquid nitrogen until processed further.
About 13 g of purified housefly heads were suspended in about 65 mL of 10% sucrose buffer (10% sucrose (w/w) in 10 mM Tris, pH 7.5). The heads were homogenized for about 1 minute, using a Tissumizer™ homogenizer equipped with a SDT-100EN probe (available from Tekmar-Dohrmann, Cincinnati, Ohio) running at 70% of its maximum speed. The extract was further homogenized by about 5 passes through a 40 mL Dounce tissue grinder. The extract was then centrifuged at about 500×g for about 5 minutes to pellet large debris. The supernatant was collected; the pellet was washed with an additional 65 mL of 10% sucrose buffer and centrifuged at 500×g for about 5 minutes. The second supernatant was collected and combined with the first supernatant, and the pool was filtered through a 100μ CellMicroSieve™ mesh to remove residual debris (available from BioDesign of New York, Carmel, N.Y.).
Neuronal membranes containing active GABA receptors were collected via sucrose density centrifugation by the following method. About 8 mL of 35% sucrose buffer (35% sucrose (w/w) in 10 mM Tris, pH 7.5), were dispensed into each of six 38 mL ultracentrifuge tubes. These layers were overlaid with about 8 mL of 20% sucrose buffer (20% sucrose (w/w) in 10 mM Tris, pH 7.5), and finally overlaid with about 20 mL of filtered extract supernatant. The tubes were centrifuged at about 120,000×g for about 100 min at 4° C. After centrifugation, the 10% sucrose layer and most of the 20% sucrose layer were removed by aspiration. The membranes at the interface of the 20% sucrose and 35% sucrose layers were collected, pooled, diluted with 10% sucrose buffer, and centrifuged at about 120,000×g for about 40 min at 4° C. After centrifugation, the supernatant was discarded, and the pellets resuspended in about 6.5 mL of assay buffer (10 mM phosphate, 300 mM NaCl, pH 7.5) using a 10 mL Potter-Elvehjem tissue grinder with a Teflon® pestle. Protein concentration was determined by the Bio-Rad Protein Assay (available from Bio-Rad Laboratories, Hercules, Calif.) using bovine serum albumin as a standard. The membranes were aliquoted and stored in liquid nitrogen for up to 2 months before use.
Housefly neuronal membranes were prepared as described above from housefly heads. Test compounds were dissolved in dimethylsulfoxide (DMSO) at concentrations ranging from about 2 nM to about 100 mM. About 1 μL of a dissolved test compound was dispensed into a well of a 96-well polystyrene plate. About 100 μL of ice cold assay buffer (10 mM phosphate, 300 mM NaCl, pH 7.5) containing 5.2 nM 4′-Ethynyl-4-n-[2,3-^3H2]propylbicycloorthobenzoate (^3H-EBOB, 38 Ci/mmol, available from NEN Life Science Products, Boston, Mass.) was added to the well, followed by about 100 μL of ice cold assay buffer containing about 0.5-1.0 mg/mL housefly neuronal membranes. Control wells were prepared the same way except that the housefly neuronal membranes were omitted from the “negative” wells, and the test compounds were omitted from the “positive” wells. […]

[1] = target: Mouse Brain GABA Receptors; experiment: In vitro assay of binding to mouse brain GABA receptors (3H-EBOB displacement, mouse brain membranes); conditions: displacement of 5.2 nM 3H-EBOB, about 45 min at about 24° C.
Protocol: Mouse brains were obtained from carbon dioxide-asphyxiated Swiss-Webster mice, washed with phosphate-buffered saline, and used either fresh or after storage at −80° C. for up to 10 months. Unless specified, all preparation steps were performed at 0-4° C. For each preparation, 20 brains were suspended in about 40 mL of 0.32 M sucrose and homogenized for about 2 minutes, using a Tissumizer™ homogenizer equipped with a SDT-100EN probe (available from Tekmar-Dohrmann, Cincinnati, Ohio) running at 50% of its maximum speed. The extract was centrifuged for about 5 min at about 1000×g to pellet intact brain tissue. The supernatant was retained and the pellet washed with an additional 40 mL of 0.32 M sucrose and centrifuged at 1000×g for about 5 minutes. The 1000×g supernatants were combined and centrifuged at about 10,000×g for about 20 min to pellet membranes. The 10,000×g supernatant was discarded and the pellet was resuspended in about 20 mL of water containing 1 mM EDTA. The sample was dialyzed two times for about 3 hours each against about 3 L of water. The sample was then centrifuged at about 25,000×g for about 30 min to pellet the membranes. After centrifugation, the supernatant was discarded and the wet pellet recovered. The protein concentration of the pellet was determined by the Bio-Rad Protein Assay (available from Bio-Rad Laboratories, Hercules, Calif.) using bovine serum albumin as a standard. The membranes were aliquoted and stored at −80° C. for up to 6 months before use.
Mouse brain membranes were prepared as described above from dissected mouse brains. Test compounds were dissolved in dimethylsulfoxide (DMSO) at concentrations ranging from about 2 nM to about 100 mM. About 1 μL of a dissolved test compound was dispensed into a well of a 96-well polystyrene plate. About 100 μL of ice cold assay buffer (10 mM phosphate, 300 mM NaCl, pH 7.5) containing 5.2 nM 4′-Ethynyl-4-n-[2,3-^3H2]propylbicycloorthobenzoate (^3H-EBOB, 38 Ci/mmol, available from NEN Life Science Products, Boston, Mass.) was added to the well, followed by about 100 μL of ice cold assay buffer containing about 0.25-0.5 mg/mL mouse brain membranes. Control wells were prepared the same way except that the mouse brain membranes were omitted from the “negative” wells, and the test compounds were omitted from the “positive” wells. The samples were incubated for about 45 min at about 24° C. and then filtered on a 0.1% (w/v) polyethylenimine-soaked glass fiber Filtermat A (available from EG&G Wallac Inc., Gaithersburg, Md.) followed by four 100 mL rinses of cold assay buffer using a Harvester 96® cell harvester (available from Tomtec, Orange, Conn.). The filtermat was air dried and radioactivity bound to the filtermat was detected with either a 1450 MicroBeta® Trilux scintillation counter (available from EG&G Wallac Inc.) or a Topcount NXT™ scintillation counter (available from Packard Instrument Co., Meriden, Conn.) using standard methods.
Specific binding was considered to be the difference between total ^3H bound to the mouse brain membranes in the absence of any inhibitors and nonspecific ^3H bound to the mouse brain membranes upon the addition of 5 μM unlabeled EBOB. The average radioactivity contained in the “negative” wells was subtracted from each of the assay wells. […] Compounds that displaced ^3H-EBOB specifically bound to the mouse brain membranes were tested at 24-48 different final concentrations, varying from about 1 nM to about 125 μM, in order to determine the concentration at which 50% of the maximum inhibition due to the addition of that compound was observed (IC50). […]

[2] = tested on: cat fleas (Ctenocephalides felis), CO Fleas; experiment: In vivo cat flea contact assay, CO fleas; conditions: Ctenocephalides felis, topical; contact with treated filter disk in vial, about 24-30 hours; mM = concentration of the DMSO solution, about 1 μL applied; read-out: LD50 (mM), CO Fleas
Protocol: This example describes an in vivo assay to screen compounds for their ability to kill cat fleas via contact.
Test compounds were dissolved in dimethylsulfoxide (DMSO) at concentrations ranging from about 0.05 mM to about 100 mM. About 1 μL of dissolved test compound was dispensed onto a 6 mm (diameter) GF/C filter disk (filter material available from Whatman Inc., Clifton, N.J.) in the bottom of a 4 mL screw-top glass vial and allowed to air dry 24-48 hours. Positive control vials were prepared in the same manner except that no test compounds were dissolved in the DMSO. About 20 newly emerged cat fleas (Ctenocephalides felis) were sedated by refrigeration at 0-4° C. and transferred to each vial. Each vial was sealed with a thin, perforated Teflon™ septum secured by an open top screw cap and held vertically in the dark. After about 24-30 hours, the healthy, moribund, and dead cat fleas in each vial were counted. The percentage of dead cat fleas in each vial was then calculated using the formula M=100(D−(FC/100))/(F−(FC/100)), in which M is the percentage of dead cat fleas due to the addition of the test compound, D is the number of dead cat fleas in the test vial, F is the total number of cat fleas in the test vial, and C is the percentage of dead cat fleas in the control vials.

IC50 [1] | Structure (SMILES) | Compounds with the most activity (housefly 3H-EBOB binding) (Housefly GABA receptors) | LC50 [2] | IC50 (Housefly GABA receptors; displacement of 5.2 nM 3H-EBOB, housefly head neuronal membranes, about 45 min at about 24° C., read-out: IC50 (nM), Fly Head)
 | CC1CCc2nn(-c3c(Cl)cc(C(F)(F)F)cc3Cl)cc21 (racemic) [Compound 42, 2-[2,6-Dichloro-4-(trifluoromethyl)phenyl]-4-methyl-2,4,5,6-tetrahydrocyclopenta[c]pyrazole] | most activity |  | 
 | Nc1c2c(nn1-c1c(Cl)cc(C(F)(F)F)cc1Cl)CSC2 [Compound 1, 2-[2,6-Dichloro-4-(trifluoromethyl)phenyl]-4,6-dihydrothieno-[3,4-c]pyrazole-3-ylamine] | most activity |  | 
 | FC(F)(F)c1cc(Cl)c(-n2cc3sccc3n2)c(Cl)c1 [Compound 22, 2-[2,6-Dichloro-4-(trifluoromethyl)phenyl]-2H-thieno[3,2-c]pyrazole] | most activity |  | 
1000 nM | FC1Cc2nn(-c3c(Cl)cc(C(F)(F)F)cc3Cl)cc2C1(F)F (stereo not drawn) [Compound 56, 2-[2,6-Dichloro-4-(trifluoromethyl)phenyl]-4,4,5-trifluoro-2,4,5,6-tetrahydrocyclopenta[c]pyrazole] |  | 1 mM | 
25000 nM | CC1(O)c2cn(-c3c(Cl)cc(C(F)(F)F)cc3Cl)nc2CC1F (stereo not drawn) [Compound 57, 2-[2,6-Dichloro-4-(trifluoromethyl)phenyl]-5-fluoro-4-methyl-2,4,5,6-tetrahydrocyclopenta[c]pyrazol-4-ol] |  | 3.8 mM | 
1000 nM | FC(F)(F)c1cc(Cl)c(-n2cc3c(n2)CCC3(F)F)c(Cl)c1 [Compound 61, 2-[2,6-dichloro-4-(trifluoromethyl)phenyl]-4,4-difluoro-2,4,5,6-tetrahydrocyclopenta[c]pyrazole] |  | 5 mM | 
180 nM | FC1c2nn(-c3c(Cl)cc(C(F)(F)F)cc3Cl)cc2C(F)(F)C1F (stereo not drawn) [Compound 89, 2-[2,6-Dichloro-4-(trifluoromethyl)phenyl]-4,4,5,6-tetrafluoro-2,4,5,6-tetrahydrocyclopenta[c]pyrazole] |  | < 0.5 mM | 
60 nM | FC(F)(F)c1cc(Cl)c(-n2cc3c(n2)CC(F)(F)C3(F)F)c(Cl)c1 [Compound 92, 2-[2,6-Dichloro-4-(trifluoromethyl)phenyl]-4,4,5,5-tetrafluoro-2,4,5,6-tetrahydrocyclopenta[c]pyrazole] |  | < 0.5 mM | 

Structure (SMILES) | IC50 [1] | Compounds with the most activity (housefly 3H-EBOB binding) (Housefly GABA receptors) | LC50 [2] | IC50 (Housefly GABA receptors; displacement of 5.2 nM 3H-EBOB, housefly head neuronal membranes, about 45 min at about 24° C., read-out: IC50 (nM), Fly Head)
F[C@@H]1Cc2cn(-c3c(Cl)cc(C(F)(F)F)cc3Cl)nc2[C@@H]1F (relative stereo) [Compound 81, cis-2-[2,6-Dichloro-4-(trifluoromethyl)phenyl]-5,6-difluoro-2,4,5,6-tetrahydrocyclopenta[c]pyrazole] | 1000 nM |  | 1.5 mM | 
FC(F)(F)c1cc(Cl)c(-n2cc3c(n2)CCSC3)c(Cl)c1 [Compound 10, 2-[2,6-Dichloro-4-(trifluoromethyl)phenyl]-2H,4H,6H,7H-thiano[4,3-c]pyrazole] | 3800 nM | most activity |  | 
CC1(C)CCc2cn(-c3c(Cl)cc(C(F)(F)F)cc3Cl)nc21 [Compound 12, 2-[2,6-Dichloro-4-(trifluoromethyl)phenyl]-6,6-dimethyl-2,4,5,6-tetrahydrocyclopenta[c]pyrazole] | 30000 nM | most activity |  | 
CC1(O)c2cn(-c3c(Cl)cc(C(F)(F)F)cc3Cl)nc2CC1(F)F (stereo not drawn) [Compound 93, 2-[2,6-Dichloro-4-(trifluoromethyl)phenyl]-5,5-difluoro-4-methyl-2,4,5,6-tetrahydrocyclopenta[c]pyrazol-4-ol] | 2300 nM |  |  | 100 nM
